# Values joined by “and” are separate entries in the source; they are usually repeats but may differ in a detail not shown here. Equal values may be shown once. Inconclusive results are not listed.
# Tested on: Lewis lung carcinoma i.m., BDF1 mice, T/C %
# Assay: NCI In Vivo Anticancer Drug Screen. Data for tumor model Lewis Lung Carcinoma (intramuscular) in B6D2F1 (BDF1) mice
# Method in brief: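 Compound given to mice with transplantable tumours; survival or tumour size compared against the vehicle control group, reported as T divided by C.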
# [1] = endpoint: mean tumor weight, dose: 12.5 mg/kg/injection, schedule: Q01DX011 (ip), vehicle: saline, higher = larger tumour
# [2] = endpoint: mean tumor weight, dose: 25.0 mg/kg/injection, schedule: Q01DX011 (ip), vehicle: saline, higher = larger tumour
# [3] = endpoint: median survival time, dose: 12.5 mg/kg/injection, schedule: Q01DX011 (ip), vehicle: saline, higher = longer survival
# [4] = endpoint: median survival time, dose: 25.0 mg/kg/injection, schedule: Q01DX011 (ip), vehicle: saline, higher = longer survival
smiles,measurement,setting,value
Cc1c2ccncc2c(C)c2c1[nH]c1ccccc12,T/C,"endpoint: median survival time, dose: 1.56 mg/kg/injection, schedule: Q01DX011 (ip), vehicle: water, higher = longer survival",100 % of control
same,T/C,"endpoint: median survival time, dose: 3.12 mg/kg/injection, schedule: Q01DX011 (ip), vehicle: water, higher = longer survival",100 % of control
same,T/C,"endpoint: median survival time, dose: 6.25 mg/kg/injection, schedule: Q01DX011 (ip), vehicle: water, higher = longer survival",108 % of control
CC1OC(=O)C(C2OC2C)=CC1O (configuration not stated),T/C,"endpoint: mean tumor weight, dose: 6.25 mg/kg/injection, schedule: Q01DX011 (ip), vehicle: saline, higher = larger tumour",93 % of control
same,T/C,[1],99 % of control
same,T/C,[2],78 % of control
same,T/C,"endpoint: median survival time, dose: 6.25 mg/kg/injection, schedule: Q01DX011 (ip), vehicle: saline, higher = longer survival",102 % of control
same,T/C,[3],109 % of control
same,T/C,[4],107 % of control
O=c1c(O)c(-c2ccc(O)c(O)c2)oc2cc(O)cc(O)c12,T/C,"endpoint: median survival time, dose: 200.0 mg/kg/injection, schedule: Q02DX009 (ip), vehicle: saline, higher = longer survival",102 % of control
ClC1=NC(Cl)C(Cl)=N/C1=N\c1ncn[nH]1 (configuration not stated),T/C,"endpoint: median survival time, dose: 4.0 mg/kg/injection, schedule: Q01DX011 (ip), vehicle: saline, higher = longer survival",108 % of control
same,T/C,"endpoint: median survival time, dose: 8.0 mg/kg/injection, schedule: Q01DX011 (ip), vehicle: saline, higher = longer survival",91 % of control
same,T/C,"endpoint: median survival time, dose: 16.0 mg/kg/injection, schedule: Q01DX011 (ip), vehicle: saline, higher = longer survival",92 % of control
CS(=O)(=O)OCCC(=O)N1CCN(C(=O)CCOS(C)(=O)=O)CC1,T/C,[1],79 % of control
same,T/C,[2],60 % of control
same,T/C,"endpoint: mean tumor weight, dose: 50.0 mg/kg/injection, schedule: Q01DX011 (ip), vehicle: saline, higher = larger tumour",61 % of control
same,T/C,[3],104 % of control
same,T/C,[4],97 % of control
COC(=O)Nc1nc2ccc(C3(c4ccc(F)cc4)OCCO3)cc2[nH]1,T/C,"endpoint: median survival time, dose: 20.0 mg/kg/injection, schedule: Q01DX011 (oral), vehicle: other, higher = longer survival",97 % of control
same,T/C,"endpoint: median survival time, dose: 40.0 mg/kg/injection, schedule: Q01DX011 (oral), vehicle: other, higher = longer survival",97 % of control
O=c1n(CC2CO2)c(=O)n(CC2CO2)c(=O)n1CC1CO1 (configuration not stated),T/C,"endpoint: median survival time, dose: 20.0 mg/kg/injection, schedule: Q01DX011 (ip), vehicle: saline, higher = longer survival",115 % of control
same,T/C,"endpoint: median survival time, dose: 30.0 mg/kg/injection, schedule: Q01DX011 (ip), vehicle: saline, higher = longer survival",120 % of control and 122 % of control
same,T/C,"endpoint: median survival time, dose: 40.0 mg/kg/injection, schedule: Q01DX011 (ip), vehicle: saline, higher = longer survival",117 % of control and 124 % of control
same,T/C,"endpoint: median survival time, dose: 70.0 mg/kg/injection, schedule: Q01DX011 (ip), vehicle: saline, higher = longer survival",114 % of control
same,T/C,"endpoint: median survival time, dose: 80.0 mg/kg/injection, schedule: Q01DX011 (ip), vehicle: saline, higher = longer survival",90 % of control
same,T/C,"endpoint: median survival time, dose: 90.0 mg/kg/injection, schedule: Q01DX011 (ip), vehicle: saline, higher = longer survival",115 % of control
CCCCc1ccc(NC(=O)N(CCCl)N=O)cc1,T/C,"endpoint: median survival time, dose: 3.0 mg/kg/injection, schedule: Q07DX003 (ip), vehicle: Klucel (hydroxypropylcellulose) (HPC), higher = longer survival",112 % of control
same,T/C,"endpoint: median survival time, dose: 5.0 mg/kg/injection, schedule: Q07DX003 (ip), vehicle: Klucel (hydroxypropylcellulose) (HPC), higher = longer survival",106 % of control
same,T/C,"endpoint: median survival time, dose: 14.0 mg/kg/injection, schedule: Q07DX003 (ip), vehicle: Klucel (hydroxypropylcellulose) (HPC), higher = longer survival",110 % of control
same,T/C,"endpoint: median survival time, dose: 23.0 mg/kg/injection, schedule: Q07DX003 (ip), vehicle: Klucel (hydroxypropylcellulose) (HPC), higher = longer survival",87 % of control
CSC(=S)N/N=C/c1ccccn1,T/C,"endpoint: mean tumor weight (est.), dose: 12.5 mg/kg/injection, schedule: Q01DX011 (ip), vehicle: saline with Tween-80, higher = larger tumour",67 % of control
same,T/C,"endpoint: mean tumor weight (est.), dose: 25.0 mg/kg/injection, schedule: Q01DX011 (ip), vehicle: saline with Tween-80, higher = larger tumour",92 % of control
same,T/C,"endpoint: mean tumor weight (est.), dose: 50.0 mg/kg/injection, schedule: Q01DX011 (ip), vehicle: saline with Tween-80, higher = larger tumour",50 % of control
CN(N=O)C(=O)N[C@@H](C=O)[C@@H](O)[C@H](O)[C@H](O)CO,T/C,[1],66 % of control
same,T/C,[2],95 % of control
same,T/C,"endpoint: mean tumor weight, dose: 100.0 mg/kg/injection, schedule: Q01DX011 (ip), vehicle: saline, higher = larger tumour",61 % of control
same,T/C,"endpoint: mean tumor weight, dose: 200.0 mg/kg/injection, schedule: Q01DX011 (ip), vehicle: saline, higher = larger tumour",74 % of control
same,T/C,[3],109 % of control
same,T/C,[4],95 % of control
same,T/C,"endpoint: median survival time, dose: 50.0 mg/kg/injection, schedule: Q01DX011 (ip), vehicle: saline, higher = longer survival",90 % of control and 100 % of control
same,T/C,"endpoint: median survival time, dose: 100.0 mg/kg/injection, schedule: Q01DX011 (ip), vehicle: saline, higher = longer survival",92 % of control
same,T/C,"endpoint: median survival time, dose: 200.0 mg/kg/injection, schedule: Q01DX011 (ip), vehicle: saline, higher = longer survival",121 % of control

# Reference: PubChem BioAssay AID272 (DTP/NCI, 2004)
